Data reported in patent US20100204224A1, “AZACYCLIC COMPOUNDS AS INHIBITORS OF SENSORY NEURONE SPECIFIC SODIUM CHANNELS” (priority 2005, published 2010).
pIC50: −log10 of the molar value. Like-named read-outs stand apart in the source and are kept apart here.

Target: T1, human Nav1.8 (hNav1.8) ion channel (Homo sapiens, UniProt Q9Y5Y9)
T1 construct: expressed in transfected cells
Test: Inhibition of human Nav1.8 stably expressed in SH-SY-5Y cells (membrane potential dye fluorescence assay)
Assay type: cell-based
Conditions: FLIPR membrane potential dye, 10 μM pyrethroid, 250 nM TTX, test concentration range 100 μM-0.05 μM
Experimental: Inhibition of Human Nav1.8 stably expressed in SH-SY-5Y Cells
A SH-SY-5Y neuroblastoma cell line stably expressing the human Nav1.8 (hNav1.8) ion channel was constructed. This cell line has been used to develop a medium to high throughput assay for determining the ability of test compounds to inhibit membrane depolarisation mediated via the hNav1.8 channel.
SH-SY-5Y hNav1.8 are grown in adherent monolayer culture using 50:50 Ham's F-12/EMEM tissue culture medium supplemented with 15% (v/v) foetal bovine serum; 2 mM L-glutamine, 1% NEAR and 600 μg·ml^−1 Geneticin sulphate. Cells are removed from the tissue culture flask using trypsin/EDTA and re-plated into black walled, clear bottom 96-well assay plates at 50,000 cells·well^−1 24 hours prior to assay.
On the day of assay the cell assay plates are washed to remove cell culture medium using a sodium free assay buffer (145 mM tetramethyl ammonium chloride; 2 mM calcium chloride; 0.8 mM magnesium chloride hexahydrate; 10 mM HEPES; 10 mM glucose; 5 mM potassium chloride, pH 7.4). Fluorescent membrane potential dye solution (FLIPR™ membrane potential dye, Molecular Devices Corporation), containing 10 μM of a pyrethroid to prevent channel inactivation and 250 nM tetrodotoxin (TTX) to reduce interference from TTX-sensitive sodium channels present in the cell line. Test compound, initially dissolved in dimethyl sulfoxide but further diluted in sodium free buffer, is added to achieve the final test concentration range of 100 μM-0.05 μM.
Cell plates are incubated for 30 minutes at room temperature to allow equilibration of dye and test compound. Plates are then transferred to a fluorescence plate reader for fluorescence measurement using an excitation wavelength of 530 nm whilst measuring fluorescence emission at 565 nm. Baseline fluorescence levels are first determined before the addition of a sodium containing buffer (220 mM sodium chloride; 2 mM calcium chloride; 0.8 mM magnesium chloride hexahydrate; 10 mM HEPES; 10 mM glucose; 5 mM potassium chloride. pH 7.4) to cause membrane depolarisation in those cells where channel block has not been effected (final sodium concentration=72.5 mM). Membrane depolarisation is registered by an increase in fluorescence emission at 565 nm.
The change in fluorescence seen in each test well upon the addition of sodium containing buffer is calculated relative to the baseline fluorescence for that well. This figure is then used for calculating the IC50 for each test compound.

[1] = SH-SY-5Y hNav1.8 cells, read-out: hNav1.8 IC50
[2] = hNav1.8 IC50, SH-SY-5Y hNav1.8 cells

T1 sequence (Q9Y5Y9 whole entry): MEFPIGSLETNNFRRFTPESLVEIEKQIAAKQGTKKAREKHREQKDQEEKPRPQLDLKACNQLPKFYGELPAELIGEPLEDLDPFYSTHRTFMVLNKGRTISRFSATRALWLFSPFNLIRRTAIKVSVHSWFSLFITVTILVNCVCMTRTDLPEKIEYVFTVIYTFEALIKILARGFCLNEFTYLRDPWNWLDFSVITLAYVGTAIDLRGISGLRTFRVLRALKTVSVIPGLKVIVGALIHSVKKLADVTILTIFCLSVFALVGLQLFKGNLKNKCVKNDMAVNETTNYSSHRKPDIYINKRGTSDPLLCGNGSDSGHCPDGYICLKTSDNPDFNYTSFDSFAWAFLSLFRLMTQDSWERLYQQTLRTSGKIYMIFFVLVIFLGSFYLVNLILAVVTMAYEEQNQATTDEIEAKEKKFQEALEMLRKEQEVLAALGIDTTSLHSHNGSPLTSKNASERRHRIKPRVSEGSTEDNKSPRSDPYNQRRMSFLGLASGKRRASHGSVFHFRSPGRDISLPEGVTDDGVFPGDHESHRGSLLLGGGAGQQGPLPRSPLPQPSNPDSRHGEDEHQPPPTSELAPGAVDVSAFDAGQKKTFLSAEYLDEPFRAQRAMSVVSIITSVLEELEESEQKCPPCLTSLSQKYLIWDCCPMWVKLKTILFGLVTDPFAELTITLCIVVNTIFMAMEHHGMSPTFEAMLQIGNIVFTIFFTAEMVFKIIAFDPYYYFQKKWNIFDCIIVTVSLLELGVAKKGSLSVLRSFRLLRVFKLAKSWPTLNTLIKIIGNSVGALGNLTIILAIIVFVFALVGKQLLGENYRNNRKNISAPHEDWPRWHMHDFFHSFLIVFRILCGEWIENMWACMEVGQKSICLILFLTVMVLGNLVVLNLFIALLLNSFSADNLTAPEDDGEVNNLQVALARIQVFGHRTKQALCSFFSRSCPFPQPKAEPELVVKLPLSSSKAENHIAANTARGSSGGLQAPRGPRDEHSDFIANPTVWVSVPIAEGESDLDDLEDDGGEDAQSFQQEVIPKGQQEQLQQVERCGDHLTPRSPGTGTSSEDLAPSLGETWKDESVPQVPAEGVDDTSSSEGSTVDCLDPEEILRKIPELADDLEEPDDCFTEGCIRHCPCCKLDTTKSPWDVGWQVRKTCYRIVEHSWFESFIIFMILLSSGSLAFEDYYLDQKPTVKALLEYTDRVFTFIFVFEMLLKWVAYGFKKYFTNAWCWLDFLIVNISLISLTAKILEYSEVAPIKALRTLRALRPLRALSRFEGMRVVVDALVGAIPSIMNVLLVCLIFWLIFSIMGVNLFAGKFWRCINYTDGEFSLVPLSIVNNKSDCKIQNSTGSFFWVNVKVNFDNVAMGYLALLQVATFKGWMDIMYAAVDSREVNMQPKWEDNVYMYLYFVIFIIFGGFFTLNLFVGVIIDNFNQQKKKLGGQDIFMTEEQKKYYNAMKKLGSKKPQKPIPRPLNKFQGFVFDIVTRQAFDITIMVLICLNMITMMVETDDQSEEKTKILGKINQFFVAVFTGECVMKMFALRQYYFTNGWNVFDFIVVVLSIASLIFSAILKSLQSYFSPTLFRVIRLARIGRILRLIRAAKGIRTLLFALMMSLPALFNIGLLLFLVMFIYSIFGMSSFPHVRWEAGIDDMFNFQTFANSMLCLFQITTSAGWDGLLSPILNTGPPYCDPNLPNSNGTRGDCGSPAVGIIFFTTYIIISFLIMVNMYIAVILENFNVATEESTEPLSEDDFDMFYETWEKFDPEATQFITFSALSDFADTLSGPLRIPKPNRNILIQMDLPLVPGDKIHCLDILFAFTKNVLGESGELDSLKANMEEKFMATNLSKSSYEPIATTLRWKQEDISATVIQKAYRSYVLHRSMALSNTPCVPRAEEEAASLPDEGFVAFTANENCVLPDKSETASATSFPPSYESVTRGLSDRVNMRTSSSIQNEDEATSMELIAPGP

Structure (SMILES)	pIC50 [1]	pIC50 [2]
Cc1ccccc1C(C)N1CC2CC1CN2C(=O)Nc1ccc(OCCN(C)C)cc1 (stereo not shown) [Example 21, 5-(1-o-Tolyl-ethyl)-2,5-diaza-bicyclo[2.2.1]heptane-2-carboxylic acid [4-(2-dimethylamino-ethoxy)-phenyl]-amide]	4.55	
CC(c1ccccc1Cl)N1CC2CC1CN2C(=O)N(C)c1ccc(Oc2ccc(F)cc2)cc1 (stereo not shown) [Example 143, 5-[1-(2-Chloro-phenyl)-ethyl]-2,5-diaza-bicyclo[2.2.1]heptane-2-carboxylic acid [4-(4-fluoro-phenoxy)-phenyl]-methyl-amide]	5.49	
CC(c1ccccc1Cl)N1CC2CN(C(=O)Nc3ccc(Oc4ccc(F)cc4)cc3)CC2C1 (stereo not shown) [Example 107, 5-[1-(2-Chloro-phenyl)-ethyl]-hexahydro-pyrrolo[3,4-c]pyrrole-2-carboxylic acid [4-(4-fluoro-phenoxy)-phenyl]-amide]	5.95	
O=C(Nc1ccc(Cc2ccccc2)cc1)N1CC2CC1CN2C1Cc2ccc(F)cc2C1 (stereo not shown) [Example 124, 5-(5-Fluoro-indan-2-yl)-2,5-diaza-bicyclo[2.2.1]heptane-2-carboxylic acid (4-benzyl-phenyl)-amide]	6.19	
O=C(Nc1ccc(Oc2ccc(F)cc2)cc1)N1CC2CN(Cc3ccccc3)CC2C1 (stereo not shown) [Example 98, 5-Benzyl-hexahydro-pyrrolo[3,4-c]pyrrole-2-carboxylic acid [4-(4-fluoro-phenoxy)-phenyl]-amide]	6.77	
O=C(Nc1ccc(C(F)(F)F)cc1)N1CC2CC1CN2C1Cc2ccc(F)cc2C1 (stereo not shown) [Example 130, 5-(5-Fluoro-indan-2-yl)-2,5-diaza-bicyclo[2.2.1]heptane-2-carboxylic acid (4-trifluoromethyl-phenyl)-amide]	5.44	
O=C(Nc1ccc(Oc2ccccc2)cc1)N1CC2CN(Cc3ccccc3)CC2C1 (stereo not shown) [Example 89, 5-Benzyl-hexahydro-pyrrolo[3,4-c]pyrrole-2-carboxylic acid (4-phenoxy-phenyl)-amide]	6.40	
CC(c1ccc(Cl)cc1Cl)N1CC2CC1CN2C(=O)Nc1ccc(C(F)(F)F)cc1 (stereo not shown) [Example 126, 5-[1-(2,4-Dichloro-phenyl)-ethyl]-2,5-diaza-bicyclo[2.2.1]heptane-2-carboxylic acid (4-trifluoromethyl-phenyl)-amide]	4.64	
Cc1ccc(C(C)N2CC3CC2CN3C(=O)Nc2ccc(Oc3ccc(F)cc3)cc2)c(C)c1 (stereo not shown) [Example 117, 5-[1-(2,4-Dimethyl-phenyl)-ethyl]-2,5-diaza-bicyclo[2.2.1]heptane-2-carboxylic acid [4-(4-fluoro-phenoxy)-phenyl]-amide]	6.38	
O=C(Nc1ccc(Oc2ccc(F)cc2)cc1)N1CC2CC1CN2C1CCc2ccccc2C1 (stereo not shown) [Example 97, 5-(1,2,3,4-Tetrahydro-naphthalen-2-yl)-2,5-diaza-bicyclo[2.2.1]heptane-2-carboxylic acid [4-(4-fluoro-phenoxy)-phenyl]-amide]	6.51	
CC(c1ccccc1C(F)(F)F)N1CC2CC1CN2C(=O)Nc1ccc(Oc2ccccc2)cc1 (single isomer, unassigned) [Example 60, 5-[1-(2-Trifluoromethyl-phenyl)-ethyl]-2,5-diaza-bicyclo[2.2.1]heptane-2-carboxylic acid (4-phenoxy-phenyl)-amide]	5.83	
Cc1ccccc1CC(C)N1CC2CC1CN2C(=O)NC(C)c1ccc(F)cc1 (stereo not shown) [Example 70, 5-(1-Methyl-2-o-tolyl-ethyl)-2,5-diaza-bicyclo[2.2.1]heptane-2-carboxylic acid [1-(4-fluoro-phenyl)-ethyl]-amide]	5.29	
Cc1ccccc1C(C)N1CC2CC1CN2C(=O)Cc1ccc(Oc2ccccc2)cc1 (stereo not shown) [Example 37, 2-(4-Phenoxy-phenyl)-1-[5-(1-o-tolyl-ethyl)-2,5-diaza-bicyclo[2.2.1]hept-2-yl]-ethanone]		6.02
CC(c1c(F)cccc1Cl)N1CC2CC1CN2C(=O)Cc1ccc(Oc2ccc(F)cc2)cc1 (single isomer, unassigned) [Example 165, 1-{5-[1-(2-Chloro-6-fluoro-phenyl)-ethyl]-2,5-diaza-bicyclo[2.2.1]hept-2-yl}-2-[4-(4-fluoro-phenoxy)-phenyl]-ethanone]		5.91
CC(c1ccccc1Cl)N1CC2CC1CN2C(=O)Nc1ccc(Oc2ccc(F)cc2)cc1 (single isomer, unassigned) [Example 76, 5-[1-(2-Chloro-phenyl)-ethyl]-2,5-diaza-bicyclo[2.2.1]heptane-2-carboxylic acid [4-(4-fluoro-phenoxy)-phenyl]-amide]	6.57	
Cc1ccccc1C(C)N1CC2CC1CN2C(=O)Nc1ccc(-c2ccccc2)cc1 (stereo not shown) [Example 38, 5-(1-o-Tolyl-ethyl)-2,5-diaza-bicyclo[2.2.1]heptane-2-carboxylic acid biphenyl-4-ylamide]	5.84	
Cc1ccc(Oc2ccc(NC(=O)N3CC4CC3CN4C(C)c3ccccc3Cl)cc2)cc1 (stereo not shown) [Example 139, 5-[1-(2-Chloro-phenyl)-ethyl]-2,5-diaza-bicyclo[2.2.1]heptane-2-carboxylic acid (4-p-tolyloxy-phenyl)-amide]	5.94	
CC(c1ccc(Cl)cc1Cl)N1CC2CC1CN2C(=O)Nc1ccc(Oc2ccc(F)cc2)cc1 (stereo not shown) [Example 118, 5-[1-(2,4-Dichloro-phenyl)-ethyl]-2,5-diaza-bicyclo[2.2.1]heptane-2-carboxylic acid [4-(4-fluoro-phenoxy)-phenyl]-amide]	4.75	
Cc1ccccc1C(C)N1CC2CC1CN2C(=O)Nc1ccc(Oc2ccccc2)cc1 (stereo not shown) [Example 30, 5-(1-o-Tolyl-ethyl)-2,5-diaza-bicyclo[2.2.1]heptane-2-carboxylic acid (4-phenoxy-phenyl)-amide]	6.49	
O=C(Nc1ccc(Oc2ccc(F)cc2)cc1)N1CC2CC1CN2C1Cc2ccc(F)cc2C1 (stereo not shown) [Example 131, 5-(5-Fluoro-indan-2-yl)-2,5-diaza-bicyclo[2.2.1]heptane-2-carboxylic acid [4-(4-fluoro-phenoxy)-phenyl]-amide]	6.26	
CC(c1ccc(F)cc1Cl)N1CC2CC1CN2C(=O)Cc1ccc(Oc2ccc(F)cc2)cc1 (single isomer, unassigned) [Example 162, 1-{5-[1-(2-Chloro-4-fluoro-phenyl)-ethyl]-2,5-diaza-bicyclo[2.2.1]hept-2-yl}-2-[4-(4-fluoro-phenoxy)-phenyl]-ethanone]		4.74
Cc1ccc(Oc2ccc(NC(=O)N3CC4CC3CN4C(C)c3ccc(Cl)cc3Cl)cc2)cc1 (stereo not shown) [Example 127, 5-[1-(2,4-Dichloro-phenyl)-ethyl]-2,5-diaza-bicyclo[2.2.1]heptane-2-carboxylic acid (4-p-tolyloxy-phenyl)-amide]	4.66	
CCCCOc1ccc(NC(=O)N2CC3CC2CN3C(C)c2ccccc2C)cc1 (stereo not shown) [Example 5, 5-(1-o-Tolyl-ethyl)-2,5-diaza-bicyclo[2.2.1]heptane-2-carboxylic acid (4-butoxy-phenyl)-amide]	6.24	
CC(c1ccccc1Cl)N1CC2CC1CN2C(=O)Cc1ccc(Oc2ccc(F)cc2)cc1 (stereo not shown) [Example 135, 1-{5-[1-(2-Chloro-phenyl)-ethyl]-2,5-diaza-bicyclo[2.2.1]hept-2-yl}-2-[4-(4-fluoro-phenoxy)-phenyl]-ethanone]		6.03
CC(c1ccc(F)cc1)N1CC2CC1CN2C(=O)Nc1cccc(Oc2ccccc2)c1 (stereo not shown) [Example 52, 5-[1-(4-Fluoro-phenyl)-ethyl]-2,5-diaza-bicyclo[2.2.1]heptane-2-carboxylic acid (3-phenoxy-phenyl)-amide]	6.05	
